Experimental data as given in patent publication US6930088B2, “Conformationally constrained backbone cyclized somatostatin analogs” (Peptor Ltd., priority 1998, dated 2005).
Blank lines part the entries; values can stand above or below the molecule they belong to. *1 amine or outer side, *2 acyl side, *3 side chain or, on linkers, in order; H or OH if unused. Where a SMILES comes first, the peptide text is derived from it. Bridges are numbered along the chain shown (N, C = ends). Where no end group is shown, it is not given here. [ ]: non-standard residue; d: D form. N(2-aminoethyl)Phe = O=C([C@H](Cc1ccccc1)N(CCN[*:3])[*:1])[*:2]; N(CH2CH2CO)Gly = O=C(CN(CCC(=O)[*:3])[*:1])[*:2]; 2Nal = N[C@@H](Cc1ccc2ccccc2c1)C(=O)O; Gly(S2) = not defined here; Phe(C1) = not defined here; Mpa = O=C(O)CCS

Columns and labels:
SSTR-3 = molecular target: T1, SSTR-3 (Homo sapiens, UniProt P32745); assay: Inhibition of 125I-Tyr11-SRIF binding to membrane preparations expressing SSTR-3; settings: SST-R3, read-out: Percent inhibition of SRIF-14 binding; for inhibition at 1 µM: 10^−6M; for inhibition at 0.1 µM: 10^−7M; for inhibition at 0.01 µM: 10^−8M
T1 construct: expressed in transfected cells
T1 sequence (P32745 whole entry): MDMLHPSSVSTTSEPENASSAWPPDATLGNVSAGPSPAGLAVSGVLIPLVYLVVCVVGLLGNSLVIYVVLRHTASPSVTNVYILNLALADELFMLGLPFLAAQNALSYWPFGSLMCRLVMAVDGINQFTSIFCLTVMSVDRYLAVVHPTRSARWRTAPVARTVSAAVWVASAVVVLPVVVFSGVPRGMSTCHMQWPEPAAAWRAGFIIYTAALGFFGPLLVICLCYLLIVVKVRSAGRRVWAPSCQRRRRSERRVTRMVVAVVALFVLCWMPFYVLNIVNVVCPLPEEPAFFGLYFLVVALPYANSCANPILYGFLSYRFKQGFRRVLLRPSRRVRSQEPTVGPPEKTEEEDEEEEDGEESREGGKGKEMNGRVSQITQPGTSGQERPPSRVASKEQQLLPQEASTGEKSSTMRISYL
Procedure: The somatostatin analogs were tested for their potency in inhibition of the binding of ^125I-Tyr^11-SRIF (based on the method described by Raynor et. al., Molecular Pharmacology, 1993, 43, 838-844) to membrane preparations expressing the transmembranal somatostatin receptors (SSTR-1, 2, 3, 4 or 5). The receptor preparations used for these tests were either from the cloned human receptors selectively and stably expressed in Chinese Hamster Ovary (CHO) cells or from cell lines naturally expressing the SSTRs. […] The binding reactions were filtered, the filters were washed and the bound radioactivity was counted in gamma counter. Non specific binding was defined as the radioactivity remaining bound in the presence of 1 μM unlabeled SRIF-14.
(§1) In order to validate positive signals of the binding tests, and to eliminate non-specific signals, samples of irrelevant peptides, such as GnRH, that were synthesized and handled using the same procedures, were tested in the same assays as negative control samples. These samples had no binding activity in any of the assays. Results are shown below in Tables 5 and 6 and FIG. 1.

SSTR-5 = molecular target: T2, SSTR-5 (Homo sapiens, UniProt P35346); assay: Inhibition of 125I-Tyr11-SRIF binding to membrane preparations expressing SSTR-5; settings: SST-R5, read-out: Percent inhibition of SRIF-14 binding; for inhibition at 1 µM: 10^−6M; for inhibition at 0.1 µM: 10^−7M; for inhibition at 0.01 µM: 10^−8M
T2 construct: expressed in transfected cells
T2 sequence (P35346 whole entry): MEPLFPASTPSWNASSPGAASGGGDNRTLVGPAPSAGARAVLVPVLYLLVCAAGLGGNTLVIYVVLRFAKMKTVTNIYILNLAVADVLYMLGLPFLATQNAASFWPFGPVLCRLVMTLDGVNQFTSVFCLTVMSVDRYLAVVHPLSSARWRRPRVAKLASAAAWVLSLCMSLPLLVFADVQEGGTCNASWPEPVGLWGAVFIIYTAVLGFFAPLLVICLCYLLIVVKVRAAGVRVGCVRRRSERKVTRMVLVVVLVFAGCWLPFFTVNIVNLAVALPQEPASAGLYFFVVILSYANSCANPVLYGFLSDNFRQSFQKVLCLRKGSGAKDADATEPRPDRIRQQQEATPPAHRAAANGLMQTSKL
Procedure: (§2) The receptor preparations used for these tests were either from the cloned human receptors selectively and stably expressed in Chinese Hamster Ovary (CHO) cells or from cell lines naturally expressing the SSTRs. […] The binding reactions were filtered, the filters were washed and the bound radioactivity was counted in gamma counter. Non specific binding was defined as the radioactivity remaining bound in the presence of 1 μM unlabeled SRIF-14.
as §1

in vitro = settings: for remaining at 1 h / remaining at 3 h / remaining at 24 h: kidney or brush border membranes
Procedure: The assay was based on HPLC determination of peptide degradation as a function of time in renal homogenate at 37° C.

[1] = rat, in vivo, iv, 6 mg/kg
Procedure: PTR 3173 was tested in various species for its initial safety properties. Under the European Pharmacopoeia requirements for safety testing, it was declared a safe drug candidate at this stage of development.

[2] = Metabolic bio-stability against degradation by enzyme mixtures; assay type: in vitro ADME; settings: in words; renal homogenate, rat liver homogenate and human serum
Opiate receptors = assay: NovaScreen nonspecific binding, Opiate receptors; settings: tested at 100 nM; FIG. 2
From the text: NovaScreen (Hanover, Md.) performed an assessment for nonspecific binding to various G-protein coupled receptor families. Binding studies to Neurokinin, Opiate and Muscarinic receptors were based on a comparison between the native hormone Somatostatin, Ocreotide and PTR 3173.

[3] = molecular target: T3, cloned human somatostatin receptor 5 (human, UniProt P35346 1-364); assay: 125I-Tyr11-SRIF displacement, membranes, cloned human SST-R5
T3 construct: whole, on cells; Tested as cell membrane preparations; also called SSTR-5; SSTR5
T3 sequence (P35346 whole entry): as above

[4] = molecular target: T4, cloned human somatostatin receptor 3 (human, UniProt P32745 1-418); assay: 125I-Tyr11-SRIF displacement, membranes, cloned human SST-R3
T4 construct: whole, on cells; Tested as cell membrane preparations; also called SSTR-3; SSTR3
T4 sequence (P32745 whole entry): as the sequence (P32745 whole entry) above
From the text: as §2, with “counter.” for “counter. Non specific binding was defined as the radioactivity remaining bound in the presence of 1 μM unlabeled SRIF-14.”

[5] = molecular target: T3, cloned human somatostatin receptor 5; assay: IC50 for SST-R5 (subtype numbers stand in r6)
[6] = molecular target: T5, cloned human somatostatin receptor 1 (human, UniProt P30872 1-391); assay: inhibition of SRIF binding, cloned human SSTR-1; head says nM, values evidently molar
T5 construct: whole, on cells; Tested as cell membrane preparations; also called SSTR-1; SSTR1
T5 sequence (P30872 whole entry): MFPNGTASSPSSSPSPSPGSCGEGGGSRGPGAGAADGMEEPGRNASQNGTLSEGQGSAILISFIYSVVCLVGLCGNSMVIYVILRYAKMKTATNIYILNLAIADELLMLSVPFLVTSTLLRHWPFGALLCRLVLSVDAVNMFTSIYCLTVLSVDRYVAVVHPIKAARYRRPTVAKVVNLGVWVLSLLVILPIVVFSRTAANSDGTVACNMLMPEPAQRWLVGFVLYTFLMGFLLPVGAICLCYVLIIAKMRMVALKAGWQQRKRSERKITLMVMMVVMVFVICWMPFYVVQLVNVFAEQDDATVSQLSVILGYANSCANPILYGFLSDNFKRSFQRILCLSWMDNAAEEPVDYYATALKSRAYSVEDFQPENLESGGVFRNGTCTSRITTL
From the text: as §2, with “counter.” for “counter. Non specific binding was defined as the radioactivity remaining bound in the presence of 1 μM unlabeled SRIF-14.”

[7] = molecular target: T6, cloned human somatostatin receptor 2 (human, UniProt P30874 1-369); assay: inhibition of SRIF binding, cloned human SSTR-2; head says nM, values evidently molar
T6 construct: whole, on cells; Tested as cell membrane preparations; also called SSTR-2; SSTR2
T6 sequence (P30874 whole entry): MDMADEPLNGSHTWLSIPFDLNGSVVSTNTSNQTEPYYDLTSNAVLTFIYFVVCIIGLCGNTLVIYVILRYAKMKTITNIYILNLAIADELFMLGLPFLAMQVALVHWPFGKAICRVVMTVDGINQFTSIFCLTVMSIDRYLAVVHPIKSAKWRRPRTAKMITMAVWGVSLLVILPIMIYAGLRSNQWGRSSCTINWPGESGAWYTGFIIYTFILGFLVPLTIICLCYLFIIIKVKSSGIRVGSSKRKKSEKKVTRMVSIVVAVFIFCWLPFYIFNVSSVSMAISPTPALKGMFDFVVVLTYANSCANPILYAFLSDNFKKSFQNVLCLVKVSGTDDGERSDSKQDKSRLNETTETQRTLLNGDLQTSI
From the text: as §2, with “counter.” for “counter. Non specific binding was defined as the radioactivity remaining bound in the presence of 1 μM unlabeled SRIF-14.”

[8] = molecular target: T4, cloned human somatostatin receptor 3; assay: inhibition of SRIF binding, cloned human SSTR-3; head says nM, values evidently molar
From the text: as §2, with “counter.” for “counter. Non specific binding was defined as the radioactivity remaining bound in the presence of 1 μM unlabeled SRIF-14.”

[9] = molecular target: T3, cloned human somatostatin receptor 5; assay: inhibition of SRIF binding, cloned human SSTR-5; head says nM, values evidently molar
From the text: as §2, with “counter.” for “counter. Non specific binding was defined as the radioactivity remaining bound in the presence of 1 μM unlabeled SRIF-14.”

[10] = molecular target: T5, cloned human somatostatin receptor 1; assay: 125I-Tyr11-SRIF displacement on SSTR membrane preparations, negative control peptide
From the text: as §2, with “counter.” for “counter. Non specific binding was defined as the radioactivity remaining bound in the presence of 1 μM unlabeled SRIF-14.”
as §1

[11] = molecular target: T6, cloned human somatostatin receptor 2; assay: as above
From the text: as §2, with “counter.” for “counter. Non specific binding was defined as the radioactivity remaining bound in the presence of 1 μM unlabeled SRIF-14.”
as §1

[12] = molecular target: T4, cloned human somatostatin receptor 3; assay: as above
From the text: as §2, with “counter.” for “counter. Non specific binding was defined as the radioactivity remaining bound in the presence of 1 μM unlabeled SRIF-14.”
as §1

[13] = molecular target: T7, cloned human somatostatin receptor 4 (human, UniProt P31391 1-388); assay: as above
T7 construct: whole, on cells; Tested as cell membrane preparations; also called SSTR-4; SSTR-R4
T7 sequence (P31391 whole entry): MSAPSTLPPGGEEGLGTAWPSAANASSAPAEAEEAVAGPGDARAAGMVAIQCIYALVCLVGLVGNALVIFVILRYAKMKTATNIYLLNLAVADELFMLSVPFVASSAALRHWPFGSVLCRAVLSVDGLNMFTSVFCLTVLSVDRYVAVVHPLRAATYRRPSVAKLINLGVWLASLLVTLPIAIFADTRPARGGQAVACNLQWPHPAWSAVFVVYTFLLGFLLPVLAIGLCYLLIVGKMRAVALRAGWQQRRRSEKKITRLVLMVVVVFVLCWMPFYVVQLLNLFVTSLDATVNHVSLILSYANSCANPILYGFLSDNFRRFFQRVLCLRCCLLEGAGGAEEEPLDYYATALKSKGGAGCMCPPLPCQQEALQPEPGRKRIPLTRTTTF
From the text: as §2, with “counter.” for “counter. Non specific binding was defined as the radioactivity remaining bound in the presence of 1 μM unlabeled SRIF-14.”
as §1

[14] = molecular target: T3, cloned human somatostatin receptor 5; assay: as above
From the text: as §2, with “counter.” for “counter. Non specific binding was defined as the radioactivity remaining bound in the presence of 1 μM unlabeled SRIF-14.”
as §1

[15] = molecular target: T5, cloned human somatostatin receptor 1; assay: IC50 for SST-R1 (subtype numbers stand in r6)
[16] = molecular target: T4, cloned human somatostatin receptor 3; assay: IC50 for SST-R3 (subtype numbers stand in r6)

Molecule: NCCCC[C@H]1NC(=O)[C@@H](Cc2c[nH]c3ccccc23)NC(=O)[C@H](Cc2ccccc2)NC(=O)[C@H](Cc2ccccc2)NC(=O)[C@H](Cc2ccccc2)NCC(=O)NCCN([C@@H](Cc2ccccc2)C(N)=O)C1=O [PTR 3123, Phe(C1)-Phe-Phe-(D)Trp-(D)Lys-Phe(N2)-X]
inhibition at 1 µM (SSTR-3): 84%
inhibition at 0.1 µM (SSTR-3): 41%
inhibition at 0.01 µM (SSTR-3): 24%
inhibition at 1 µM (SSTR-5): 0%
inhibition at 0.1 µM (SSTR-5): 0%
inhibition at 0.01 µM (SSTR-5): 0%
remaining at 1 h (in vitro): 100%
remaining at 3 h (in vitro): 100%
remaining at 24 h (in vitro): 100%
safety [1]: safe

Molecule: C[C@@H](O)[C@@H]1NC(=O)[C@H](CCCCN)NC(=O)[C@@H](Cc2c[nH]c3ccccc23)NC(=O)[C@H](Cc2ccccc2)NC(=O)[C@@H]2CSSC[C@H](NC1=O)C(=O)N([C@@H](Cc1ccccc1)C(N)=O)CCCNC(=O)CCCN[C@@H](Cc1ccccc1)C(=O)N2 [PTR 3205, Phe(C3)-Cys*-Phe-(D)Trp-Lys-Thr-Cys*-Phe(N3)-X]
metabolic bio-stability against degradation by enzymes [2]: considerable metabolic bio-stability against degradation by enzymes

Molecule: NCCCC[C@@H]1NC(=O)[C@@H](Cc2c[nH]c3ccccc23)NC(=O)[C@H](Cc2ccccc2)NC(=O)[C@H](Cc2ccccc2)NC(=O)[C@H](Cc2ccccc2)NCC(=O)NCCN([C@@H](Cc2ccccc2)C(N)=O)C1=O [PTR 3113, Phe(C1)-Phe-Phe-(D)Trp-Lys-Phe(N2)-X]
inhibition at 1 µM (SSTR-3): 94%
inhibition at 0.1 µM (SSTR-3): 65%
inhibition at 0.01 µM (SSTR-3): 16%
inhibition at 1 µM (SSTR-5): 86%
inhibition at 0.1 µM (SSTR-5): 50%
inhibition at 0.01 µM (SSTR-5): 0%
remaining at 1 h (in vitro): 100%
remaining at 3 h (in vitro): 100%
remaining at 24 h (in vitro): 100%
safety [1]: safe

Molecule: C[C@H](N)C(=O)NCC(=O)N[C@H]1CSSC[C@@H](C(=O)O)NC(=O)[C@H](CO)NC(=O)[C@H]([C@@H](C)O)NC(=O)[C@H](Cc2ccccc2)NC(=O)[C@H]([C@@H](C)O)NC(=O)[C@H](CCCCN)NC(=O)[C@H](Cc2c[nH]c3ccccc23)NC(=O)[C@H](Cc2ccccc2)NC(=O)[C@H](Cc2ccccc2)NC(=O)[C@H](CC(N)=O)NC(=O)[C@H](CCCCN)NC1=O [SRIF, H-Ala^1-Gly^2-Cys^3-Lys^4-Asn^5-Phe^6-Phe^7-Trp^8-Lys^9-Thr^10-Phe^11-Thr^12-Ser^13-Cys^14-OH, reference compound]
Percent of intact molecule after incubation in renal homogenate (in vitro; Time 0 hrs, 37° C.): 100%
remaining at 1 h (in vitro): 5%
remaining at 3 h (in vitro): 0%
remaining at 24 h (in vitro): 0%
binding to Opiate receptors (Opiate receptors): did not bind

Molecule: NCCCC[C@@H]1NC(=O)[C@@H](Cc2c[nH]c3ccccc23)NC(=O)[C@H](Cc2ccc(O)cc2)NC(=O)[C@H](Cc2ccccc2)NCCNC(=O)CCN(CC(N)=O)C(=O)[C@H](Cc2ccc3ccccc3c2)NC(=O)[C@H](CO)NC1=O [PTR 3201, Phe(N2)-Tyr-(D)Trp-Lys-Ser-2Nal-Gly(C2)-X] (H-[N(2-aminoethyl)Phe]Y[dW]KS[2Nal][N(CH2CH2CO)Gly]-NH2; lactam 1-7; N-terminus and C-terminus assumed)
metabolic bio-stability against degradation by enzymes [2]: considerable metabolic bio-stability against degradation by enzymes

B4: PTR 3207 (peptide)
peptide: [dF]CFW[dW]KTF[Gly(S2)]-NH2
modifications: disulfide 2-9; reading uncertain
notes: Backbone to side chain cyclized nonapeptide
IC50 [5]: 4 nM
IC50 [6]: 100 nM
IC50 [7]: 1 nM
IC50 [8]: 1 nM
IC50 [9]: 10 nM

Results, then the molecule that gave them:

percent inhibition of SRIF-14 binding at 10^-7M [3]: 0%
percent inhibition of SRIF-14 binding at 10^-8M [3]: 0%
percent inhibition of SRIF-14 binding at 10^-6M [4]: 84%
percent inhibition of SRIF-14 binding at 10^-7M [4]: 41%
percent inhibition of SRIF-14 binding at 10^-8M [4]: 24%
B1: PTR 3123 (peptide)
peptide: [Phe(C1)]FF[dW][dK][N(2-aminoethyl)Phe]
modifications: lactam 1-6; reading uncertain
notes: Backbone cyclized hexapeptide

IC50 [5]: 4.1 nM
B2: PTR 3217 (peptide)
peptide: [Mpa]FW[dW]KTF[Gly(S2)]-NH2
modifications: bridge N-8; reading uncertain

IC50 [5]: 1.3 nM
B3: PTR 3211 (peptide)
peptide: {mercaptoacetic acid}-FW[dW]KTF[Gly(S2)]-NH2
modifications: disulfide N-7; reading uncertain
notes: Cyclized between the SH moiety and the SH-type building unit

IC50 [5]: 37 nM
B5: PTR 3219 (peptide)
peptide: FGFWWKTFG
modifications: (D)Phe at 1; Gly(S2) building units at 2 and 9 bridged to each other; (D)Trp at 5; C-terminal amide

binding result [10]: no binding
binding result [11]: no binding
binding result [12]: no binding
binding result [13]: no binding
binding result [14]: no binding
B6: GnRH (peptide, UniProt P01148 24-33, looked up)
peptide: QHWSYGLRPG
modifications: not fully specified (residue 1, C-terminus)
notes: Negative control sample; also called irrelevant peptides, such as GnRH

IC50 [15]: 1000 nM
IC50 [16]: 40 nM
IC50 [6]: 10 nM
IC50 [7]: 10 nM
IC50 [8]: 1 nM
IC50 [9]: 10 nM
B7: PTR 3197 (peptide)
peptide: CFW[dW]KTF[Gly(S2)]-NH2
modifications: disulfide 1-8; reading uncertain
notes: Backbone to side chain cyclized octapeptide
